These are literature values, as cited in US4808590A (priority 1988, dated 1989).

The conditions of the data set: British Patent Specification Nos. 1,078,049 and 932,875; cited from earlier work.

As to `C=C1C[C@](OC)([C@H](O)C(=O)N[C@@H](OC)[C@@H]2C[C@@H](O)C(C)(C)[C@@H](C[C@@H](COC)OC)O2)O[C@H](C)[C@@H]1C` [Pederin], the antimitotic activity entry is “shows antimitotic activity”.
